Results reported in patent publication US5807535A, “Metal complexes of hydroxyaryl containing aminocarboxylic acid chelating agents” (Australian Nuclear Science & Technology Organisation, priority 1992, dated 1998).
Read-outs that look alike come from different tables or passages of the source. Blank lines part the entries; values can stand above or below the compound they belong to.

Tests used:
[1] = Biodistribution of 99mTc complexes in mice; assay type: in vivo, Balb/c mice
Excerpt: (§1) A series of derivatives incorporating carboxyl and phenolate donor groups (1-6) were synthesised by literature method and their radiolabelling characteristic and biological behaviour evaluated. Initial work involved an investigation of radiochemical properties of the ^99m Tc complexes of the ligands and their biodistribution in rats and mice (see Tables 1-6 and 8-12).
(§2) A typical method of radiolabelling of the chelator was achieved by dissolving the chelator in a basic solution of saline. The pH was then adjusted to approx. 6 with HCl. Excess stannous chloride was added to the resultant solution followed by one equivalent volume of sodium ^99m TcO4 (10-50 mCi/ml). Final concentration of the chelator was approx. 1 mg/ml. The efficacy of labelling was determined by ITLC-SG. For each product only one main radiochemical species was observed. Each complex was diluted to 15 μCi/100 μl with saline. […] (See FIGS. 1A and 1B).

[2] = Biodistribution of compound No. 6 in mice (Table 6); assay type: in vivo, Balb/c mice; conditions: mouse; for tissue uptake at 0.05 h: 3 min
Excerpt: as §1, §2

[3] = Biodistribution of 67Ga complexes in mice; assay type: in vivo, balb/c mice
Protocol: To ligand (50 μL, 10 mg/mL, 0.2 M NaOAc, […]) was added ^67 Ga citrate (18.5 MBq) and the resultant mixture diluted to 1 mL (0.2 M NaOAc, pH 7). The pH was adjusted to 12 with 1 M NaOH (20 μL) and heated at 40° C. for 40 min. The final volume was adjusted (to 5 mL) with saline and sterilised by filtering through a 0.22 μm filter.
Each animal was injected via tail vein with ^67 Ga complex (100 μL, ~3.7×10^5 Bq). Animals were sacrificed at various time intervals (5 animals per time point/6 time points). Data are illustrated in FIG. 26-30 and in Tables 13-17.
Each ^67 Ga-ligand complex has been evaluated in balb/c mice. […] (see FIG. 26-30).

[4] = lymphoma diagnosis; cited from earlier work
[5] = blood, read-out: biodistribution blood
[6] = bone, read-out: biodistribution bone
[7] = brain, read-out: biodistribution brain
[8] = heart, read-out: biodistribution heart
[9] = kidneys, read-out: biodistribution kidneys
[10] = liver, read-out: biodistribution liver
[11] = lungs, read-out: biodistribution lungs
[12] = muscle, read-out: biodistribution muscle
[13] = pancreas, read-out: biodistribution pancreas
[14] = skin, read-out: biodistribution skin
[15] = spleen, read-out: biodistribution spleen
[16] = stomach, read-out: biodistribution stomach
[17] = tail, read-out: biodistribution tail
[18] = thymus, read-out: biodistribution thymus
[19] = thyroid, read-out: biodistribution thyroid
[20] = total git, read-out: biodistribution tot GIT
[21] = urine, read-out: biodistribution urine

biodistribution GIT ([1]; 1 min): 3.58 % Injected dose
biodistribution bladder ([1]; 1 min): 0.06 % Injected dose
biodistribution blood ([1]; 1 min): 41.63 % Injected dose
biodistribution bone ([1]; 1 min): 7.37 % Injected dose
biodistribution heart ([1]; 1 min): 0.46 % Injected dose
biodistribution kidney ([1]; 1 min): 7.57 % Injected dose
biodistribution liver ([1]; 1 min): 22.44 % Injected dose
biodistribution lungs ([1]; 1 min): 1.71 % Injected dose
biodistribution muscle ([1]; 1 min): 13.95 % Injected dose
biodistribution skin ([1]; 1 min): 8.13 % Injected dose
biodistribution spleen ([1]; 1 min): 0.2 % Injected dose
biodistribution stomach ([1]; 1 min): 0.4 % Injected dose
biodistribution tail ([1]; 1 min): 8.46 % Injected dose
biodistribution urine ([1]; 1 min): 0.07 % Injected dose
biodistribution GIT ([1]; 3 min): 11.98 % Injected dose
biodistribution bladder ([1]; 3 min): 0.08 % Injected dose
biodistribution blood ([1]; 3 min): 15.59 % Injected dose
biodistribution bone ([1]; 3 min): 3.5 % Injected dose
biodistribution heart ([1]; 3 min): 0.2 % Injected dose
biodistribution kidney ([1]; 3 min): 5.68 % Injected dose
biodistribution liver ([1]; 3 min): 35.66 % Injected dose
biodistribution lungs ([1]; 3 min): 0.65 % Injected dose
biodistribution muscle ([1]; 3 min): 7.87 % Injected dose
biodistribution skin ([1]; 3 min): 8.31 % Injected dose
biodistribution spleen ([1]; 3 min): 0.09 % Injected dose
biodistribution stomach ([1]; 3 min): 0.43 % Injected dose
biodistribution tail ([1]; 3 min): 7.37 % Injected dose
biodistribution urine ([1]; 3 min): 0.81 % Injected dose
biodistribution GIT ([1]; 5 min): 27.85 % Injected dose
biodistribution bladder ([1]; 5 min): 0.07 % Injected dose
biodistribution blood ([1]; 5 min): 10.31 % Injected dose
biodistribution bone ([1]; 5 min): 3.86 % Injected dose
biodistribution heart ([1]; 5 min): 0.16 % Injected dose
biodistribution kidney ([1]; 5 min): 4.53 % Injected dose
biodistribution liver ([1]; 5 min): 30.85 % Injected dose
biodistribution lungs ([1]; 5 min): 0.69 % Injected dose
biodistribution muscle ([1]; 5 min): 7.24 % Injected dose
biodistribution skin ([1]; 5 min): 9.28 % Injected dose
biodistribution spleen ([1]; 5 min): 0.14 % Injected dose
biodistribution stomach ([1]; 5 min): 5.42 % Injected dose
biodistribution tail ([1]; 5 min): 7.64 % Injected dose
biodistribution urine ([1]; 5 min): 0.59 % Injected dose
biodistribution GIT ([1]; 10 min): 45.71 % Injected dose
biodistribution bladder ([1]; 10 min): 0.23 % Injected dose
biodistribution blood ([1]; 10 min): 6.34 % Injected dose
biodistribution bone ([1]; 10 min): 2.76 % Injected dose
biodistribution heart ([1]; 10 min): 0.08 % Injected dose
biodistribution kidney ([1]; 10 min): 2.44 % Injected dose
biodistribution liver ([1]; 10 min): 16.04 % Injected dose
biodistribution lungs ([1]; 10 min): 0.45 % Injected dose
biodistribution muscle ([1]; 10 min): 5.27 % Injected dose
biodistribution skin ([1]; 10 min): 5.17 % Injected dose
biodistribution spleen ([1]; 10 min): 0.07 % Injected dose
biodistribution stomach ([1]; 10 min): 3.42 % Injected dose
biodistribution tail ([1]; 10 min): 4.77 % Injected dose
biodistribution urine ([1]; 10 min): 1.231 % Injected dose
biodistribution GIT ([1]; 30 min): 51.18 % Injected dose
biodistribution bladder ([1]; 30 min): 0.2 % Injected dose
biodistribution blood ([1]; 30 min): 9.66 % Injected dose
biodistribution bone ([1]; 30 min): 2.54 % Injected dose
biodistribution heart ([1]; 30 min): 0.11 % Injected dose
biodistribution kidney ([1]; 30 min): 1.9 % Injected dose
biodistribution liver ([1]; 30 min): 14.05 % Injected dose
biodistribution lungs ([1]; 30 min): 0.39 % Injected dose
biodistribution muscle ([1]; 30 min): 6.92 % Injected dose
biodistribution skin ([1]; 30 min): 4.23 % Injected dose
biodistribution spleen ([1]; 30 min): 0.06 % Injected dose
biodistribution stomach ([1]; 30 min): 1.73 % Injected dose
biodistribution tail ([1]; 30 min): 2.41 % Injected dose
biodistribution urine ([1]; 30 min): 1.64 % Injected dose
tissue uptake at 0.05 h [2, 5]: 10.7 %ID/g
tissue uptake at 5 min [2, 5]: 7.83 %ID/g
tissue uptake at 0.05 h [2, 6]: 1.91 %ID/g
tissue uptake at 5 min [2, 6]: 1.39 %ID/g
tissue uptake at 0.05 h [2, 7]: 0.74 %ID/g
tissue uptake at 5 min [2, 7]: 0.35 %ID/g
tissue uptake at 0.05 h [2, 8]: 3.84 %ID/g
tissue uptake at 5 min [2, 8]: 2.8 %ID/g
tissue uptake at 0.05 h [2, 9]: 24.1 %ID/g
tissue uptake at 5 min [2, 9]: 18.4 %ID/g
tissue uptake at 0.05 h [2, 10]: 6.52 %ID/g
tissue uptake at 5 min [2, 10]: 9.39 %ID/g
tissue uptake at 0.05 h [2, 11]: 6.38 %ID/g
tissue uptake at 5 min [2, 11]: 4.66 %ID/g
tissue uptake at 0.05 h [2, 12]: 1.81 %ID/g
tissue uptake at 5 min [2, 12]: 1.26 %ID/g
tissue uptake at 0.05 h [2, 13]: 1.86 %ID/g
tissue uptake at 5 min [2, 13]: 1.41 %ID/g
tissue uptake at 0.05 h [2, 14]: 3.96 %ID/g
tissue uptake at 5 min [2, 14]: 3.47 %ID/g
tissue uptake at 0.05 h [2, 15]: 2.24 %ID/g
tissue uptake at 5 min [2, 15]: 1.78 %ID/g
tissue uptake at 0.05 h [2, 16]: 1.78 %ID/g
tissue uptake at 5 min [2, 16]: 6.85 %ID/g
tissue uptake at 0.05 h [2, 17]: 8.94 %ID/g
tissue uptake at 5 min [2, 17]: 6.18 %ID/g
tissue uptake at 0.05 h [2, 18]: 3.67 %ID/g
tissue uptake at 5 min [2, 18]: 2.5 %ID/g
tissue uptake at 0.05 h [2, 19]: 5.76 %ID/g
tissue uptake at 5 min [2, 19]: 3.73 %ID/g
tissue uptake at 0.05 h [2, 20]: 1.03 %ID/g
tissue uptake at 5 min [2, 20]: 2.12 %ID/g
tissue uptake at 0.05 h [2, 21]: 1.3 %ID/g
tissue uptake at 5 min [2, 21]: 0.95 %ID/g
biodistribution bone ([3]; 1 min): 4.33 % ID
biodistribution kidney ([3]; 1 min): 9.95 % ID
biodistribution liver ([3]; 1 min): 26.45 % ID
biodistribution muscle ([3]; 1 min): 17.93 % ID
biodistribution skin ([3]; 1 min): 13.91 % ID
biodistribution spleen ([3]; 1 min): 0.22 % ID
biodistribution bone ([3]; 3 min): 2.41 % ID
biodistribution kidney ([3]; 3 min): 5.24 % ID
biodistribution liver ([3]; 3 min): 34.06 % ID
biodistribution muscle ([3]; 3 min): 10.67 % ID
biodistribution skin ([3]; 3 min): 12.80 % ID
biodistribution spleen ([3]; 3 min): 0.08 % ID
biodistribution bone ([3]; 5 min): 1.67 % ID
biodistribution kidney ([3]; 5 min): 3.36 % ID
biodistribution liver ([3]; 5 min): 30.21 % ID
biodistribution muscle ([3]; 5 min): 6.35 % ID
biodistribution skin ([3]; 5 min): 10.62 % ID
biodistribution spleen ([3]; 5 min): 0.04 % ID
biodistribution bone ([3]; 10 min): 0.96 % ID
biodistribution kidney ([3]; 10 min): 1.98 % ID
biodistribution liver ([3]; 10 min): 18.58 % ID
biodistribution muscle ([3]; 10 min): 4.37 % ID
biodistribution skin ([3]; 10 min): 5.76 % ID
biodistribution spleen ([3]; 10 min): 0.03 % ID
biodistribution bone ([3]; 30 min): 0.34 % ID
biodistribution kidney ([3]; 30 min): 0.79 % ID
biodistribution liver ([3]; 30 min): 3.15 % ID
biodistribution muscle ([3]; 30 min): 7.73 % ID
biodistribution skin ([3]; 30 min): 0.86 % ID
biodistribution spleen ([3]; 30 min): 0.01 % ID
biodistribution kidney ([3]; 120 min): 0.06 % ID
biodistribution liver ([3]; 120 min): 1.33 % ID
biodistribution muscle ([3]; 120 min): 1.85 % ID
biodistribution skin ([3]; 120 min): 0.10 % ID
biodistribution spleen ([3]; 120 min): 0.00 % ID
SMILES: Cc1cc(C)c(O)c(NC(=O)CN(CCN(CC(=O)O)CC(=O)Nc2cc(C)cc(C)c2O)CC(=O)O)c1 [Compound 6]

SMILES: O=C([O-])CC(O)(CC(=O)[O-])C(=O)[O-].[Ga+3] [Ga-67 citrate]
clearance [4]: clears slowly from the blood, through the liver, accumulating in the bowel
uptake at the disease sites [4]: relatively fast and selective uptake at the disease sites
